The values that follow come from US10548911B2, “Small molecule anti-scarring agents” (UNIVERSITY OF ROCHESTER, priority 2014, dated 2020).

“Also recorded” adds a separate entry of the source.

Data set [1] deals with primary human lung fibroblasts. As to the kind of experiment: TGFβ-induced myofibroblast formation, αSMA Western blot and cell images, primary human lung fibroblasts. It is filed as cell-based. On the procedure: Human lung fibroblasts were treated with various concentrations of 10-hydroxycamptothecin (HCPT) (50 nM or 500 nM) and induced to form scar-forming myofibroblasts by treating with TGFβ.
For orientation: A western blot detects proteins with antibodies after separation by electrophoresis.

Data set [2] concerns primary mouse lung fibroblasts. The data set can be described thus: TGFβ-induced myofibroblast formation, αSMA Western blot, primary mouse lung fibroblasts. The format is cell-based. Particulars: HCPT 50 nM to 500 nM.
Description: Salinomycin and alexidine served as positive controls for anti-fibrotic activity. Western blots were performed using cell lysates from the fibroblasts exposed to TGFβ to assess TGFβ-dependent αSMA expression.
In data set [3] the test system is primary human orbital fibroblasts. The data set can be described thus: TGFβ-induced myofibroblast formation, αSMA Western blot, primary human orbital fibroblasts. As to conditions: HCPT 50 nM to 500 nM, TGFβ.
Description: Total protein was isolated from 0.5-2×10^6 cells and lysed in 60 mM Tris, pH 6.8, 2% SDS containing 1× protease inhibitor cocktail (Sigma, St. Louis, Mo.). The lysates were passed through a 26 gauge needle 5-6 times to shear genomic DNA. Protein concentrations were determined using the detergent compatible protein assay (BioRad). Total protein (1-10 ug per lane) was subjected to SDS-PAGE. Protein gels were transferred to PVDF membrane (Millipore) and probed with antibodies as specified. Western blot band intensities were quantified using ImageLab software (BioRad). Protein expression was normalized to β-tubulin levels.
Primary human orbital fibroblasts, primary human lung fibroblasts, and primary mouse lung fibroblasts were treated with TGFβ and HCPT (50 nM, 500 nM, and 5000 nM) or SNC (500 nM) or AXD (0.5 μM, 5 μM, and 50 μM) to assess the ability of HCPT to inhibit myofibroblast formation. […] Western blots were performed using cell lysates from the fibroblasts exposed to TGFβ to assess TGFβ-dependent αSMA expression.
Primary human orbital fibroblasts were treated with TGFβ and either 6-formylindolo(3,2-b)carbazole (“FICZ”, 1 μM), Omeprazole (“Ome”, 2 μM, 10 μM, 50 μM, 100 μM, 250 μM, 500 μM), or Flutamide (“Flut”, 2 μM, 10 μM, 50 μM, 100 μM, 250 μM, 500 μM) to assess their ability to inhibit myofibroblast formation. […] Western blots were performed using cell lysates from the fibroblasts exposed to TGFβ to assess TGFβ-dependent αSMA expression. Densitometry analyses of the Western blots were also performed.

Take `CC[C@@]1(O)C(=O)OCc2c1cc1n(c2=O)Cc2cc3cc(O)ccc3nc2-1` [HCPT, 10-hydroxycamptothecin]: the “overt toxicity (cell images)” value in data set [1] (HCPT 50 nM or 500 nM) is “without being overtly toxic; also recorded: with out being overtly toxic”. Further, the “formation of myofibroblasts (cell images)” value in data set [1] (HCPT 50 nM or 500 nM, TGFβ) is reported as “not in samples treated with HCPT or SNC; also recorded: not in samples with HCPT or salinomycin (SNC)”. Further, the “myofibroblast formation (relative αSMA expression)” value is “potently blocks myofibroblast formation; also recorded: dose-dependent inhibition of αSMA” in data set [1] (HCPT 50 nM to 500 nM, TGFβ); “less effective in blocking myofibroblast formation; also recorded: potently blocks myofibroblast formation” in data set [2]; “potently blocks myofibroblast formation; also recorded: dose-dependent inhibition of αSMA” in data set [3].
